# Results reported in patent US20210085749A1, “Therapeutic and Neuroprotective Peptides” (Allegro Pharmaceuticals, LLC, priority 2017, published 2021).
# Where “and” joins values, the source holds several entries; their conditions need not be identical. Equal values may be shown once. Entries after “also recorded” stand apart in the source; their conditions may differ. Square brackets hold non-standard residues; d marks the D form. Peptide text beside a SMILES is read from it. Cya = N[CH](CS(=O)(=O)O)C(=O)O
# Assays:
# Retinal Neuronal cells = experiment: In vitro protection of retinal neuronal cells against Kainic acid, Trypan blue exclusion cell count; assay type: cell-based, CD1 mice; settings: 8 hours post exposure
# Description: CD1 mice were euthanized by decapitation, eyes were rapidly enucleated into DMEM complement with antibiotic solution and the retina were isolated from the pigment epithelium.
# The isolated retina was incubated in Hank's medium containing 2.5 mg/ml papain and 0.1 mg/ml of cysteine for 15 minutes at 30° C. After rinsing the Hank's medium, supplemented with 1.9 mM of CaCl2), 0.6 mM of MgCl2 and 0.1 mg/ml of bovine serum albumin.
# The retina was mechanically dissociated, about 150 μl-200 μl of cell suspension was dispensed into the petri dish containing control medium. Bipolar cells were identified under a microscope by the cells morphology. The cells were incubated for 6 hours before use.
# Four (4) separate Neuronal cell dishes were prepared, as follows: A) Control Retinal Neuronal cells, B) Retinal Neuronal cells incubated with ALG-1001 (Luminate) 1.0 mg/ml, C) Retinal Neuronal cells incubated with […], D) Retinal Neuronal cells incubated with Luminate 1.0 mg/ml for 24 hours before exposure to 500 μM of Kainic acid.
# (§1) Eight (8) hours post exposure, the cell numbers were measured using Trypan blue exclusion assay in a Neubaur Chamber.
# retinal Muller cells = experiment: In vitro protection of retinal Muller cells against Kainic acid, Trypan blue exclusion cell count; assay type: cell-based, CD1 mice; settings: 1.0 mg/ml for 24 hours before exposure to 500 μM Kainic acid (Plate D), 48 hours post exposure
# Description: CD1 mice were euthanized by decapitation, eyes were rapidly enucleated into DMEM complement with antibiotic solution and stored overnight at room temperature. Subsequently the intact globes were incubated in DMEM containing 0.1% trypsin and 70 U/ml collagenase at 37° C. for 60 minutes.
# The incubated materials were placed in a petri dish containing DMEM supplemented with 10% fetal bovine serum, and the retinas were removed without the RPE cells into small aggregates and seeded into 35 mm culture dishes. Medium was unchanged for 6 days and then replenished every 3-4 days. The cultures were maintained at 37° C. in a […]/95% O2 in a humidified incubator.
# When the cell outgrowth had attained semiconfluency, (80%) retinal aggregates were removed by pipetting the medium into the dish. This operation was repeated three (3) times until a purified flat cell population was obtained. After 24 hours, the cells were exposed to the experimental conditions.
# Four (4) separate Muller cell dishes were prepared, as follows: A) Control Muller cells; B) Muller cells incubated with ALG-1001 (Luminate) 1.0 mg/ml; C) Muller cells incubated with 500 μM of Kainic acid and D) Muller cells incubated with Luminate 1.0 mg/ml for 24 hours before exposure to 500 μM of Kainic acid. Forty Eight (48) hours post exposure, the cell numbers were measured using Trypan blue exclusion assay in a Neubaur Chamber.
# [1] = Human prospective open label study in Dry AMD, Best Corrected Visual Acuity; assay type: in vivo; settings: individual Dry AMD patient; single intravitreal injection 1.0 mg/50 μL
# Description: To determine if a single Luminate intravitreal injection of 1.0 mg/50 μL has any effect on improving Best Corrected Visual Acuity (BCVA) of Dry AMD subjects with moderate to moderately sever Dry AMD. This is a prospective interventional, open label, IRB approved human clinical proof of concept study conducted in 7 human subjects with moderate to moderately severe Dry AMD. Main inclusion criteria involved patients with Dry Macular Degeneration eyes with relatively intact photoreceptor and RPE layers in the central 1 mm of the macula by OCT. The baseline BCVA of the subjects was between 20/30 and 20/400 with no evidence of sub-retinal fluid or CNV and no history of Anti-VEGF treatment. All recruited patients underwent a baseline single intravitreal injection of Luminate 1.0 mg/50 μL and were monitored monthly, in addition central macular thickness, OCT, digital color photographs and pre and post treatment BCVA were obtained.
# retinal ganglion cells = experiment: Ocular neuroprotection in vivo, rat model of elevated intraocular pressure (optic nerve ligation), ganglion cell counts; design: species or system Wister rats
# Description: Healthy Wister rats (n=8) ten (10) weeks of age were kept in a vivarium maintained at a constant temperature of 26° C., and a constant light-dark cycle (14 hours and 10 hours respectively) with food available ad libitum. The rats were randomly divided into a Luminate treatment group of five (5) animals (Group A) and a Basic Salt Solution (BSS-control) treatment group of three (3) animals (Group B).
# The animals of Group A each received a single intravitreal injection of 1.28 mg/20 μL of Luminate in the right eye. The animals of Group B each received a single intravitreal injection of 20 μL of balanced salt solution (BSS). The left eyes of all animals in Groups A and B were not injected and were used as untreated controls. The intravitreal injections were administered 2 mm posterior to the limbus in the supronasal quadrant using a 30-gauge needle attached to a 1.0 cc syringe. Care was taken to avoid damage to the lens or retina.
# Twenty-four (24) hours after administration of the injections the rats were anesthetized by intraperitoneal injection of 3.0 mL/kg of a mixture of ketamine Hydrochloride (2.5 mg/mL), diazepam (2.0 mg/mL) and atropine (0.1 mg/mL). The eyes were then subjected to peritoneal conjunctival detachment of the lateral rectus muscle to expose the optic nerve. The optic nerve was then ligated with silk suture for a period of 60 minutes during which the absence of blood flow in the retina of each ligated eye was verified by inspection using a Plano contact lens. The ligatures were removed after 60 minutes, and restoration of blood flow to the retina was verified in each previously-ligated eye using the Plano contact lens.
# The eyes were then enucleated and fixed for histopathological analysis. Specimens of the retina and optic nerve from each eye were dehydrated and embedded in paraffin. Horizontal sections 4 microns thick were cut and stained with hematoxylin and eosin. Under light microscopy, ganglion cell counts were counted in axial sections of the retina of each eye from ora serrata through the optic nerve. Also, in each section, the number of ganglion cells per millimeter through the total length of the retina was calculated digitally, using a measuring slide calibrated for this purpose.
# Measurement of the inner plexiform layer was performed by observing the slides at a magnification of 40× no more than 1 mm from the optic nerve.
# The results were subjected to statistical analysis. The results for each group were expressed as mean±standard deviation and the statistical significance between the results of the groups was evaluated by 2 way ANOVA as well as the Mann-Whitney U test. Probabilities of <0.05 were deemed to be significant.
# ARPE-19 cells = experiment: In vitro protection of RPE cells against hydrogen peroxide, Trypan blue exclusion cell count; assay type: cell-based; settings: 8 hours post exposure
# Description: Hydrogen peroxide (H2O2), a physiological mediator of oxidative stress, is known to induce apoptosis in retinal pigment epithelial (RPE) cells.
# ARPE-19 cells were incubated in DMEM/F12 medium supplemented with 10% fetal bovine serum (FBS) and 50 μg/ml streptomycin and 50 μg/ml of penicillin at 37° C. in an atmosphere of 5% CO2.To induce differentiation, ARP-19 cells were cultured in a Laminin coated transwells for 2 weeks in the same medium supplemented with 1% FBS and antibiotics. The RPE cells were then isolated and aliquots of about 150 μl-200 μl of cell suspension were dispensed into the petri dishes containing control medium. The cells were then incubated at 37 degrees C. for 24 hours before use.
# Thereafter, the following four (4) separate neuronal cell dishes were prepared as shown below: • A) Control Retinal RPE cells; • B) Retinal RPE cells incubated with 1.0 mg/ml ALG-1001 (Luminate); • C) Retinal RPE cells incubated with 100 μM of Hydrogen Peroxide; and • D) Retinal RPE cells incubated with 1.0 mg/ml ALG-1001 (Luminate) for 24 hours before exposure to 100 μM of Hydrogen Peroxide.
# as §1
# Wister rat retina = experiment: In vivo dose-related neurotoxic effects of intravitreal Kainic acid, retinal histopathology; design: species or system Wister rats; settings: intravitreal 20 μl of 0.5, 5.0, 50.0 mM; 24 hours post treatment
# Description: The right eyes of 4 Wister rats were injected intravitreally with 20 μl of the four different solutions, as follows: A) BSS solution as control, B) 0.5 mM of Kainic acid, C) 5.0 mM of Kainic acid and D) 50.0 mM of Kainic acid.
# The rats were sacrificed 24 hours post treatment and the eyes were prepared for Histopathology examination.
smiles,measurement,setting,value
"CC(O)C(NC(=O)C(CS(=O)(=O)O)NC(=O)CNC(=O)C(CCCNC(=N)N)NC(=O)CN)C(=O)N1CCCC1C(=O)O (centres unmarked) [Luminate, Glycinyl-Arginyl-Glycinyl-Cysteic-Threonyl-Proline] (H-GRG[Cya]TP-OH; configuration not given here)","neuronal cell count, % of Control",Retinal Neuronal cells; 1.0 mg/ml for 24 hours before exposure to 500 μM Kainic acid (Plate D),80%
same,Muller cell count compared with other plates,retinal Muller cells,higher Muller cell count than any of the other plates
same,BCVA 3 Months Post Treatment,[1],1.0 log Mar (2×) and 1.3 log Mar and 0.20 log Mar and 0.3 log Mar and 0.6 log Mar
same,BCVA 3 Months Post Treatment (Snellen),[1],20/200 (2×) and 20/400 and 20/32 and 20/40 and 20/80
same,BCVA letters gained 3 Months Post Treatment vs baseline,[1],up to 20 letters; also recorded: Gained 15 letters; also recorded: Gained no letters; also recorded: Gained 10 letters; also recorded: Gained 20 letters
same,Difference between medians: Actual (CONTROLS vs. CASES),"retinal ganglion cells; ganglion cells per field, BSS controls minus treated",−9.000
same,Difference between medians: Hodges-Lehmann (CONTROLS vs. CASES),"retinal ganglion cells; ganglion cells per field, 95.05% CI −13.00 to −6.000",−10.00
same,neuroprotective effect in rat model of elevated IOP,"retinal ganglion cells; intravitreal administration, p<0.0001 vs BSS (ANOVA, Mann-Whitney)",significant neuroprotective effects
same,"Median of column A (ganglion cells per field, CASES)","retinal ganglion cells; n = 54 fields, Mann-Whitney vs BSS controls P<0.0001","18.00, n = 54"
same,SUM of ganglion cells over all fields,"retinal ganglion cells; per treated eye (case), intravitreal 1.28 mg/20 μL 24 h before 60 min optic nerve ligation",234 and 165 and 259 and 218 and 175
same,"RPE cell count, % of the control cell count",ARPE-19 cells; 1.0 mg/ml for 24 hours before exposure to 100 μM Hydrogen Peroxide (Plate D),90%
"C=C(C)[C@H]1CN[C@H](C(=O)O)[C@H]1CC(=O)O [Kainic acid, reference compound]","neuronal cell count, % compared to Control",Retinal Neuronal cells; 100 μM Kainic acid only (Plate C),58%
same,retinal degeneration by histopathology,Wister rat retina,dose-related retinal neurotoxisity
"OO [Hydrogen Peroxide, Hydrogen peroxide, reference compound]","RPE cell count, % of the control cell count",ARPE-19 cells; 100 μM Hydrogen Peroxide alone (Plate C),78%
